Data taken from ChEMBL document CHEMBL1130217, “Use of a pharmacophore model for the design of EGF-R tyrosine kinase inhibitors: 4-(phenylamino)pyrazolo[3,4-d]pyrimidines” (J Med Chem, 1997).
Where “and” joins values, the source holds several entries; their conditions need not be identical. Equal entries are not always repeated.

What was measured:
[1] = target: T1, Epidermal growth factor receptor (Homo sapiens, UniProt P00533); experiment: Inhibition of EGF-stimulated tyrosine phosphorylation in A431 cells.
Balb/MK = experiment: Inhibition of proliferation of EGF-dependent BALB/MK cells.; format: functional, cell-based; conditions: Mus musculus
[2] = target: Platelet-derived growth factor receptor (Homo sapiens, UniProt P09619+P16234); experiment: Inhibition of PDGF stimulated tyrosine phosphorylation in BALB/c3t3 cells.
[3] = target: Proto-oncogene tyrosine-protein kinase Src (Homo sapiens, UniProt P12931); experiment: Inhibitory activity against c-Src tyrosine kinase
[4] = target: T1, Epidermal growth factor receptor
Description: Inhibitory activity against epidermal growth factor receptor tyrosine kinase.

[5] = target: Protein kinase C alpha type (Homo sapiens, UniProt P17252); experiment: Inhibitory activity against protein kinase C alpha […] kinase.
[6] = target: Cyclin-dependent kinase 1 (Homo sapiens, UniProt P06493); experiment: Inhibitory activity against CDK1 Ser/Thr kinase
[7] = target: Tyrosine-protein kinase ABL1 (Homo sapiens, UniProt P00519)
Description: Inhibitory activity against v-Abl tyrosine kinase

A-431 [8] = experiment: In vivo activity against A431 xenografts in mice at 50 mg/kg ip dose; format: functional; conditions: route intraperitoneal
A-431 [9] = experiment: In vivo activity against A431 xenografts in mice at 12.5 mg/kg peroral dose; format: functional; conditions: route oral
A-431 [10] = experiment: In vivo activity against A431 xenografts in mice at 12.5 mg/kg ip dose; format: functional; conditions: route intraperitoneal

T1 sequence (P00533 whole entry): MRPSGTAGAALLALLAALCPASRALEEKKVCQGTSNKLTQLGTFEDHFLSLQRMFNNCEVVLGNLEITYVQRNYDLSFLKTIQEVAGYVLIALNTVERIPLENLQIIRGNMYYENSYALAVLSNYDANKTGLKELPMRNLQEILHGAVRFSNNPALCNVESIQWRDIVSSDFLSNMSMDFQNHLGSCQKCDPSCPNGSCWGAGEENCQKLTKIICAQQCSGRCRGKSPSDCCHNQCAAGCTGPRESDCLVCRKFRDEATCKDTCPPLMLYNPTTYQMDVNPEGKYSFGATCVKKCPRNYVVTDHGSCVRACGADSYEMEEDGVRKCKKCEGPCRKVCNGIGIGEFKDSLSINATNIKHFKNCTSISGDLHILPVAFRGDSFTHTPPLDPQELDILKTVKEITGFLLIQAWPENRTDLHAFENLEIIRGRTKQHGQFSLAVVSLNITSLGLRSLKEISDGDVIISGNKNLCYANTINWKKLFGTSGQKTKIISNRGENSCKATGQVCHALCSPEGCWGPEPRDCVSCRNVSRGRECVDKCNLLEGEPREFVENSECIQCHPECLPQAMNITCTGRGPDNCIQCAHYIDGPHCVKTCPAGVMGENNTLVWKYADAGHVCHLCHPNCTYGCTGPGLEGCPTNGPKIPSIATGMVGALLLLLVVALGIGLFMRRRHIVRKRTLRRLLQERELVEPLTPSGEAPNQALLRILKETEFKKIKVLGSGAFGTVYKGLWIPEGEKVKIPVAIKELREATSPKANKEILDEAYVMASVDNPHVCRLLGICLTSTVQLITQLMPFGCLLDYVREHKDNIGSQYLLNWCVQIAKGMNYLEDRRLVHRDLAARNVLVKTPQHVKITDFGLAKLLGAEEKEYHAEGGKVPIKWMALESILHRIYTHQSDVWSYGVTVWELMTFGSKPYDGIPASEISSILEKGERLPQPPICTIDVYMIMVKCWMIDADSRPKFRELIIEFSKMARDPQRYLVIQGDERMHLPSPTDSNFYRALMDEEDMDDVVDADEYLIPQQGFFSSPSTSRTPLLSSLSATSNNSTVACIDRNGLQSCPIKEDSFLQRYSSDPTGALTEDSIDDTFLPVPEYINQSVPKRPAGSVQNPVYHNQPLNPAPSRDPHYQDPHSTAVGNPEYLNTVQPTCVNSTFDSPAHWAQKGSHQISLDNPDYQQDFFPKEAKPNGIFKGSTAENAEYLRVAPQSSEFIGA
Sequence of Cyclin-dependent kinase 1 (P06493 whole entry): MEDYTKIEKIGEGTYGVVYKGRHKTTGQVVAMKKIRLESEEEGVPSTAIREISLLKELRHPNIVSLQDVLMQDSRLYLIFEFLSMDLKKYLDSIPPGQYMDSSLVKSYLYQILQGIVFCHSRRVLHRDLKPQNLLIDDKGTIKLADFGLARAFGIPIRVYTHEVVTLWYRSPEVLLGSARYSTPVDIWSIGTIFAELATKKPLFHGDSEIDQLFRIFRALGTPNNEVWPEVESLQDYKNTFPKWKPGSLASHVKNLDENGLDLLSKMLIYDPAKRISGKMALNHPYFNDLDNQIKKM
Sequence of Proto-oncogene tyrosine-protein kinase Src (P12931 2-536 limits assumed): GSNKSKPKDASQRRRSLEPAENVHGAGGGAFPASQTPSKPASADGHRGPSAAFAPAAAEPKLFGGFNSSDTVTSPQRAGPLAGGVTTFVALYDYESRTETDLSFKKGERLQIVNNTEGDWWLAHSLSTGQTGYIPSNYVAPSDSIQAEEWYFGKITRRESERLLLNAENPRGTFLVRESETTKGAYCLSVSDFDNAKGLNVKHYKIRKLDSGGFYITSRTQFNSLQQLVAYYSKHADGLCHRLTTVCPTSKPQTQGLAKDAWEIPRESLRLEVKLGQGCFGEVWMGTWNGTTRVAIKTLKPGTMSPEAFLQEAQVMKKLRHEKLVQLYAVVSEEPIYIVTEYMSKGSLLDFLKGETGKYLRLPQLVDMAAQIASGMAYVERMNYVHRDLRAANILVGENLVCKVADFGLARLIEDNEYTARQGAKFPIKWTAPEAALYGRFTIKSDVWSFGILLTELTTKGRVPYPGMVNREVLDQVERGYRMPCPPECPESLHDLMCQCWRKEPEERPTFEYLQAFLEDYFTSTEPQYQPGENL
Sequence of Tyrosine-protein kinase ABL1 (P00519 whole entry, looked up): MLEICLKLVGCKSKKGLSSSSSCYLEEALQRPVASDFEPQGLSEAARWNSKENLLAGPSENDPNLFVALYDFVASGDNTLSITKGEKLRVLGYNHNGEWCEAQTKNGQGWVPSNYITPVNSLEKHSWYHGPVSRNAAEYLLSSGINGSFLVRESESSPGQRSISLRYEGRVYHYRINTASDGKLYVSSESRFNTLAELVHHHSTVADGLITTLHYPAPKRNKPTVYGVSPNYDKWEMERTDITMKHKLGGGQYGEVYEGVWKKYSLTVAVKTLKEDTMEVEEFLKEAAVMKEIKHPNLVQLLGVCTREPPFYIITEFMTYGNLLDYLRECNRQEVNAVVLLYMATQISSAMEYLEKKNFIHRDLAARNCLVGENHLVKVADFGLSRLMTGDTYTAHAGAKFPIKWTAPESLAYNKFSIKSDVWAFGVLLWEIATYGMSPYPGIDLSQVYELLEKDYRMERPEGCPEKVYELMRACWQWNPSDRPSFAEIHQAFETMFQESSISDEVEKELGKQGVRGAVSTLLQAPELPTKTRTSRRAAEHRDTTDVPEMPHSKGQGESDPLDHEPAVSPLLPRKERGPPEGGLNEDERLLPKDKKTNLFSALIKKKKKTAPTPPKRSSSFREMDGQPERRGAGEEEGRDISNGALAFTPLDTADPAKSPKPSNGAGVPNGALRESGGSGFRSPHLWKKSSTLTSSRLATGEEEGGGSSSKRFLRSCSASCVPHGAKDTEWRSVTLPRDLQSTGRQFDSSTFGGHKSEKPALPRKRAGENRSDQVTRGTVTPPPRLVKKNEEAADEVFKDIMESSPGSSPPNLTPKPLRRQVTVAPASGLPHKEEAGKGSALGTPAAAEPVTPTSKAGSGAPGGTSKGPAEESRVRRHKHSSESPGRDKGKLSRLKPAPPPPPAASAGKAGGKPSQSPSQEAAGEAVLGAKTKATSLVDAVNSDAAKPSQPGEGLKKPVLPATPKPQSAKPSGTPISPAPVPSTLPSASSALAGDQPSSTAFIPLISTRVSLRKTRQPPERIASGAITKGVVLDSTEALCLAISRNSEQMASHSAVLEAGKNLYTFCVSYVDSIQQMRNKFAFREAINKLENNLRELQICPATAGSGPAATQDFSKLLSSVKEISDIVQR

Structure (SMILES) | IC50 [1] [nM] | IC50 [2] [nM] | IC50 [3] [nM] | IC50 [4] [nM] | IC50 [5] [nM] | IC50 [6] [nM] | IC50 [7] [nM] | IC50 (Balb/MK) [nM] | T/C (A-431 [8]) | T/C (A-431 [9]) [%] | T/C (A-431 [10]) [%]
COc1cccc(CNc2[nH]nc3ncnc(Nc4cccc(Cl)c4)c23)c1 | 200 | > 10000 | > 10000 | 8 | > 100000 | 3100 | 3500 | 810 |  |  | 
Oc1cccc(-c2[nH]nc3ncnc(Nc4cccc(Cl)c4)c23)c1 | 1500 | > 10000 | 2 | 26 | > 10000 | 200 | 180 | 990 |  |  | 
c1ccc(Nc2ncnc3n[nH]c(Nc4ccccc4)c23)cc1 | 12000 | > 10000 | 75000 | 58 | 6900 |  | 1960 | 8400 |  |  | 
Nc1ccc(Nc2[nH]nc3ncnc(Nc4cccc(Cl)c4)c23)cc1 |  | > 10000 | 2400 |  | > 1000 | > 1000 | 1180 |  |  |  | 
CN(C)c1ccc(Nc2[nH]nc3ncnc(Nc4cccc(Cl)c4)c23)cc1 | 1500 | 10000 | > 10000 | 29 | 2900 | 350 | > 10000 | 1550 |  |  | 
Nc1cccc(-c2[nH]nc3ncnc(Nc4cccc(Cl)c4)c23)c1 | 800 | > 10000 | > 10000 | 5 | 1500 | 680 | 3090 | 940 |  |  | 
Nc1ccc(-c2[nH]nc3ncnc(Nc4cccc(Cl)c4)c23)cc1 | 800 | > 10000 | 4900 | 2 | 3600 | 4500 | 3600 | 780 |  |  | 
COc1ccc(-c2[nH]nc3ncnc(Nc4cccc(Cl)c4)c23)cc1 | 1500 | > 10000 | > 10000 | 96 | > 10000 | > 100000 | 16500 | 1600 |  |  | 
Clc1cccc(Nc2ncnc3n[nH]c(Nc4cccc(Cl)c4)c23)c1 | 250 | 10000 | 5300 | 330 | 5900 |  | 1980 | 1400 | 25% and 31% | 41 | 46
Clc1cccc(CNc2[nH]nc3ncnc(Nc4cccc(Cl)c4)c23)c1 | 1500 | > 10000 | 2090 | 26 | > 10000 | 16000 | > 10000 | 3190 |  |  | 
Nc1ncnc2c1cnn2-c1ccccc1 |  |  |  | 2700 |  |  |  |  |  |  | 

The next lines start with results.

IC50 [1] [nM] | IC50 [2] [nM] | IC50 [3] [nM] | IC50 [4] [nM] | IC50 [5] [nM] | IC50 [6] [nM] | IC50 [7] [nM] | Structure (SMILES) | IC50 (Balb/MK) [nM] | T/C (A-431 [8]) | T/C (A-431 [9]) [%] | T/C (A-431 [10]) [%]
1500 | 10000 | > 10000 | 30 | 19000 | 5800 | > 10000 | COc1ccc(Nc2[nH]nc3ncnc(Nc4cccc(Cl)c4)c23)cc1 | 1030 |  |  | 
 |  | 1400 |  | > 100000 | 100000 |  | COc1cc2ncnc(Nc3cccc(Br)c3)c2cc1OC | 200 |  |  | 
 |  |  | 2710 |  |  |  | Cc1c(C)n(-c2ccccc2)c2ncnc(N)c12 |  |  |  | 
> 100000 | > 10000 | > 10000 | 24200 | > 100000 |  | > 10000 | Clc1cccc(Nc2[nH]nc3ncnc(Oc4cccc(Cl)c4)c23)c1 | > 50000 |  |  | 
1500 | > 10000 | 9800 | 270 | > 10000 |  |  | CC(C)(C)OC(=O)Nc1ccc(-c2[nH]nc3ncnc(Nc4cccc(Cl)c4)c23)cc1 | 4300 |  |  | 
 |  |  | 15000 |  |  |  | Nc1ncnc2c1ncn2-c1ccccc1 |  |  |  | 
